Assay results from patent US20160228434A1, “TREATMENT OF DISEASES CAUSED BY ABNORMAL LYMPHOCYTE FUNCTION WITH AN HDAC6 INHIBITOR” (priority 2013, published 2016).
“Also recorded” adds a separate entry of the source.

How the values were obtained:
[1] = test system: bone marrow pro-B cell (B220+CD43+) and pre-B cell (B220+CD43-) populations; assay: Bone marrow pro- and pre-B cell differentiation by flow cytometry in treated NZB/W mice; type: in vivo
Source text: Bone marrow cells were flushed in PBS with 1% BSA from the femurs of NZB/W mice following euthanization. Red blood cells (RBCs) were lysed using ammonium chloride potassium (ACK) lysing solution. Single-cell suspensions were then washed and stained with Allo-Phycocyanin (APC)-conjugated […] and Flourescein Isothiocyanate (FITC)-conjugated CD43 anti-mouse mAbs to identify pro-B cell (B220^+ CD43^+) and pre-B cell (B220^+ CD43^−) populations. Pro-B cell populations were further stained with Phycoerythirn (PE)-conjugated BP1 and PECy5 or Peridinin-chlorophyll proteins (PerCP)-conjugated CD24 anti-mouse mAbs to identify fractions A (B220^+ CD43^+ CD24^− BP1^−), B (B220^+ CD43^+ CD24^+ BP1^−), C (B220^+ CD43^+ CD24^lo BP1), and C′ (B220^+ CD43^+ CD24^hi BP1^+). Pre-B cells fractions were further stained with PE-conjugated IgD, and PECy5-conjugated IgM anti-mouse mAbs to identify fractions D (B220^+ CD43^− IgM^− IgD^−), E (B220^+ CD43^− IgM^+ IgD^−) and F (B220^+ CD43^− IgM^+ IgD^+). Fractions were measured by flow cytometric analysis. All antibodies were purchased from eBioscience (San Diego, Calif., USA). Flow cytometry was performed at that College of Veterinary Medicine Flow Cytometry Core Facility using a FACScan flow cytometer (Becton Dickinson, Franklin Lakes, N.J., USA). Flow cytometry data was analyzed using FlowJo Software (Tree Star, Ashland, Oreg., USA).
(§1) NZB/W mice were injected intraperitoneally 5 days/week with the vehicle control (DMSO), ACY-738 treatment at 5 mg/kg (low-dose), or ACY-738 treatment at 20 mg/kg (high-dose) beginning at 22-weeks-of-age until euthanization at 38 weeks-of-age. ACY-738 was received from Acetylon Pharmaceuticals for use in all studies. Proteinuria and weight were measured every 2 weeks and blood was collected every four weeks for sera analysis. Proteinuria was measured by a standard semi-quantitative test using Siemens Uristix dipsticks (Siemens Healthcare, Deerfield, Ill., USA). Results were quantified according to the manufacturer's instructions and scored as follows: dipstick reading of 0 mg/dL=0, trace=1, 30-100 mg/dL=2, 100-300 mg/dL=3, 300-2000 mg/dL=4, and 2000+ mg/dL=5.
Following treatment with ACY-738, harvested bone marrow cells were stained with B220 and CD43 and the percentage of pro- and pre-B cells was determined using flow cytometric analysis. FIG. 2A depicts a representative flow cytometry image of pro-B cell (B220^+ CD43^+) and pre-B cell (B220^+ CD43^−) populations.

thymic T cells = assay: Thymic T cell development by flow cytometry in treated NZB/W mice; type: in vivo; settings: 16 weeks of treatment
Description: as §1
A single-cell suspension was obtained from the thymuses and spleens of treated NZB/W mice at 38 weeks-of-age. Briefly, the thymus was removed from each NZB/W mouse and dissociated across a sterile wire mesh in a petri dish containing ice-cold RPMI 1640 medium (Thermo Scientific). RBCs were lysed using RBC lysis buffer and cells were pelleted and washed with PBS. Splenocytes were stained with APC-conjugated CD3, FITC-conjugated CD4, eFluor450 (eF450)-conjugated CD8a, PerCP-CY5.5-conjugated CD25, and PE-conjugated Foxp3. Thymocytes were stained with APC-CD3, FITC-CD4, and PE-CD8 anti-mouse mAbs (eBioscience, San Diego, Calif., USA). Fluorescence was measured using a FACScan flow cytometer and data was analyzed by FlowJo software.
FIG. 4A depicts representative flow cytometry images of thymocytes gated on CD3 and labeled with CD4 and CD8.

[2] = both high (20 mg/kg) and low (5 mg/kg) dose
[3] = i.p. 5 days/week, 22 to 38 weeks-of-age, 5 or 20 mg/kg

O=C(NO)c1cnc(NC2(c3ccccc3)CC2)nc1 [ACY-738]
percentage of pre-B cells in fraction D [1, 2]: significant increase
percentage of pre-B cells in fraction E [1, 2]: significant increase
pre-B cells in fraction F [1, 2]: decrease
pre-B cell population (B220+CD43-) in bone marrow ([1]; i.p. 5 days/week, 22 to 38 weeks-of-age, 5 and 20 mg/kg): significantly decreased in a dose-dependent manner
percentage of pro-B cells in fraction A [1, 3]: significantly increased
percentage of pro-B cells in fraction C [1, 3]: significantly increased
percentage of pro-B cells (B220+CD43+) in bone marrow ([1]; i.p. 5 days/week, 22 to 38 weeks-of-age, 5 or 20 mg/kg, vs vehicle): not significantly altered
percentage of DN (CD3+CD4-CD8-) thymic T cells (thymic T cells; NZB/W mice at 38 weeks-of-age, 5 and 20 mg/kg): decreased the percentage of DN T cells in a dose-dependent manner; also recorded: reduced
percentage of CD3+CD4+CD8- single positive thymic T cells (thymic T cells; NZB/W mice at 38 weeks-of-age): substantial decrease
percentage of CD3+CD4-CD8+ single positive thymic T cells (thymic T cells; NZB/W mice at 38 weeks-of-age): substantial decrease
double positive (CD3+CD4+CD8+) thymic T cell numbers (thymic T cells; NZB/W mice, 5 and 20 mg/kg): increased in a dose-dependent manner
